According to paper PMC9544171, “Glucose‐dependent insulinotropic polypeptide receptor antagonist treatment causes a reduction in weight gain in ovariectomised high fat diet‐fed mice” (British Journal of Pharmacology, 2022):
Where a SMILES comes first, the peptide text is derived from it. The star is where a group is joined. C16 diacid = O=C(O)CCCCCCCCCCCCCCC(=O)*

Assays:
[1] = Pharmacokinetic analysis after s.c. administration, plasma radioimmunoassay; format: in vivo; conditions: sc, female C57Bl/6 mice, single s.c. 300 nmol·kg−1 (6 nmol per mouse), in‐house radioimmunoassay
Protocol: To assess mGIPAnt‐1 half‐life following subcutaneous (s.c.) administration, mice (n = 6) received a single s.c. administration of 300‐nmol·kg^−1 mGIPAnt‐1. Retro‐orbital blood samples (50 μl) were taken using EDTA coated glass capillaries at (1) t = 0, 0.5, 1, 1.5, 2 and 2.5 h, (2) t = 2.5, 3, 4, 6, 8 and 22 h, or (3) t = 22, 24, 26, 28, 30 and 32 h and immediately added to Eppendorf tubes (Eppendorf, Hamburg, Germany) and centrifuged at 3500g, 20 min, 4°C. Plasma was transferred into Eppendorf tubes on dry ice and stored at −20°C for analysis.
mGIPAnt‐1 levels were measured by an in‐house radioimmunoassay using a polyclonal antibody recognizing a mid‐regional part of GIP (code no. 95234) (Gasbjerg et al., [2017]). mGIPAnt‐1 was used as standard and the assay buffer was a 80‐mM phosphate buffer pH 7.5, containing (in final concentrations) 0.1% HSA, 10‐mM EDTA, 500‐KIU ml^−1 aprotinin and 0.01‐mM valine pyrrolidide. Samples were carefully diluted to ensure that samples would fall within the measurable range of the assay. […]
(§1) Results are presented as mean ± SE. Data were analysed with one‐way and two‐way analysis of variance (ANOVA) with Tukey's or Sidak multiple comparisons test and Student's unpaired t tests where appropriate. […] For the in vitro data IC50 values were determined by nonlinear regression using GraphPad Prism 9 (San Diego, California, USA). […]

mouse GIP receptor [2] = biological target: T1, mouse GIP receptor (Mus musculus, UniProt Q0P543); experiment: cAMP accumulation, agonism (intrinsic activity) in transfected COS‐7 cells; format: cell-based; conditions: increasing concentrations of ligand alone, 30 min, COS‐7, n = 5
T1 construct: host or cells: COS-7
T1 sequence (Q0P543 19-460): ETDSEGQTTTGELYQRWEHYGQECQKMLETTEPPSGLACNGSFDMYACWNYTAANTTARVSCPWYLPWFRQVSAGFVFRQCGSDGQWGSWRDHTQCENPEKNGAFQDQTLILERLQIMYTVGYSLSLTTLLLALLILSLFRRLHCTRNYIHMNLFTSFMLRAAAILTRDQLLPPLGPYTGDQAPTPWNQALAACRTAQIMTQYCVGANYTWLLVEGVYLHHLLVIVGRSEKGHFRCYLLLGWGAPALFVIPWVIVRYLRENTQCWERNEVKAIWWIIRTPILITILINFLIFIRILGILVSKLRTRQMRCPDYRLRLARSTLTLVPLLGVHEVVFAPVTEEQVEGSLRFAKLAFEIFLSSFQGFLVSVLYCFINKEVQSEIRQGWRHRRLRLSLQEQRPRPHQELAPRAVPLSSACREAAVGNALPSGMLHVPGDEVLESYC
Protocol: (§2) COS‐7 cells were cultured at 10% CO2 and 37°C in Dulbecco's Modified Eagle Medium 1885 supplemented with 10% foetal bovine serum, 2‐mM glutamine, 180‐units ml^−1 penicillin and […] streptomycin. Transient transfection of the cells with either human or mouse GIP receptor was performed using the calcium phosphate precipitation method as previously described (van der Velden et al., [2021]). A second set of cells was transiently transfected with either mouse GLP‐1 or GLP‐2 receptor. Following the day after transfection, the cells were seeded in white 96‐well plates with a density of 35.000 cells per well. The next day the assay was initiated by washing the cells with HEPES buffered saline (HBS) followed by an incubation step with HBS and 1‐mM 3‐isobutyl‐1‐methylxanthine for 30 min at 37°C. For agonist studies, the ligands were then added and incubated for an additional 30 min at 37°C. To test for antagonistic properties, the cells were first preincubated for 10 min with the antagonist with subsequent addition of the agonist and incubated for an additional 20 min. The HitHunter® cAMP assay (Eurofins DiscoverX, Fremont, USA) was carried out according to the manufacturer's protocol. Luminescence was measured by PerkinElmer™ Envision 2014 Multilabel Reader.
(§3) To facilitate comparisons of assay outputs (cAMP assays), the results (of duplicate measurements) were normalized, with the response to 10 pM of GIP(1‐42) set as 100%. All ligand concentrations are reported as log‐transformed. The IC50 log values can be found in Figure 1. In Figure 3c, we have subtracted glucose levels from baseline to show the net differences in glucose levels in our different treatment groups.
(§4) FIGURE 1 In vitro signalling profile of mGIPAnt‐1 on the mouse and human glucose‐dependent insulinotropic polypeptide receptor/(GIPR). COS‐7 cells were transiently transfected with (a) mouse GIPR or (b) human GIPR and assayed for cAMP accumulation. To test for agonism, increasing concentration of the ligand was added. […]

human GIP receptor = biological target: T2, human GIP receptor (Homo sapiens, UniProt P48546); experiment: as above; format: cell-based; conditions: increasing concentrations of ligand alone, 30 min, COS‐7, n = 5
T2 construct: host or cells: COS-7
T2 sequence (P48546 22-466): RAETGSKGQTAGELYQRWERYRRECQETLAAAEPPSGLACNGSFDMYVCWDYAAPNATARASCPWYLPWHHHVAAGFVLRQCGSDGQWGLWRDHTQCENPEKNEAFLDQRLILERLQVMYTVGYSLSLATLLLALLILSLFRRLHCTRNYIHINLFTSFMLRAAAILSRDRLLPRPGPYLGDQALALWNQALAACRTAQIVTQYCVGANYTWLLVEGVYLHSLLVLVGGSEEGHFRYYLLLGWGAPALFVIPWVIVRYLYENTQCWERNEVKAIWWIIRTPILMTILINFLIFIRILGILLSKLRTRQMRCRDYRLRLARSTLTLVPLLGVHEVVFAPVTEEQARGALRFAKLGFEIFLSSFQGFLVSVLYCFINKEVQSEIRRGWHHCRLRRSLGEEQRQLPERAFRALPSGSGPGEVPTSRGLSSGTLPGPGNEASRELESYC
Protocol: as §2, §3, §4

mouse GIP receptor [3] = biological target: T1, mouse GIP receptor; experiment: cAMP accumulation, antagonism of mouse GIP(1‐42) in transfected COS‐7 cells; format: cell-based
Protocol: as §2
as §3, with “groups. […]” for “groups.”
as §1

CC[C@H](C)[C@H](NC(=O)[C@H](CO)NC(=O)[C@H](Cc1ccc(O)cc1)NC(=O)[C@H](CC(=O)O)NC(=O)[C@H](CO)NC(=O)[C@@H](NC(=O)[C@H](Cc1ccccc1)NC(=O)[C@@H](NC(=O)CNC(=O)[C@@H](N)CCC(=O)O)[C@@H](C)O)[C@@H](C)CC)C(=O)N[C@@H](C)C(=O)N[C@@H](CCSC)C(=O)N[C@@H](CC(=O)O)C(=O)N[C@@H](CCCCN)C(=O)N[C@H](C(=O)N[C@@H](CCCCNC(=O)CCCCCCCCCCCCCCC(=O)O)C(=O)N[C@@H](CCC(N)=O)C(=O)N[C@@H](CCC(N)=O)C(=O)N[C@@H](CC(=O)O)C(=O)N[C@@H](Cc1ccccc1)C(=O)N[C@H](C(=O)N[C@@H](CC(N)=O)C(=O)N[C@@H](Cc1c[nH]c2ccccc12)C(=O)N[C@@H](CC(C)C)C(=O)N[C@@H](CC(C)C)C(=O)N[C@@H](C)C(=O)N[C@@H](CCC(N)=O)C(=O)N[C@@H](CCCCN)C(=O)NCC(=O)N[C@@H](CCCCN)C(=O)N[C@@H](CCCCN)C(=O)N[C@@H](CC(N)=O)C(=O)N[C@@H](CC(=O)O)C(=O)N[C@@H](Cc1c[nH]c2ccccc12)C(=O)N[C@@H](CCCCN)C(=O)N[C@@H](Cc1c[nH]cn1)C(=O)N[C@@H](CC(N)=O)C(=O)O)C(C)C)[C@@H](C)CC [mGIPAnt‐1] (H-EGTFISDYSIAMDKIK(C16 diacid)QQDFVNWLLAQKGKKNDWKHN-OH)
half-life ([1]; calculated between t = 1.5 h and 32 h, n = 6): ~7.2 h
Tmax ([1]; n = 6, read-out: time of peak plasma concentration): 1.5 h
intrinsic activity (activation of mouse GIP receptor, cAMP) (mouse GIP receptor [2]): no activation
intrinsic activity (activation of human GIP receptor, cAMP) (human GIP receptor): no activation
IC50 (mouse GIP receptor [3]; COS‐7 transiently transfected with mouse GIPR, 10 min preincubation with antagonist, then mouse GIP(1‐42) at 50%–80% of Emax for 20 min, HitHunter cAMP, Hill slope −1.0, n = 5 independent experiments, read-out: IC50, inhibition of mGIP‐induced cAMP accumulation, mouse GIPR): 269 nM
potency relative to mGIP(3‐30)NH2 on the mouse GIP receptor (mouse GIP receptor [3]; ratio of IC50 813 nM / 269 nM): 3 fold
